Results on 4 compounds are retold here after article PMC8321398, “The discovery of a novel series of compounds with single-dose efficacy against juvenile and adult Schistosoma species” (PLoS Neglected Tropical Diseases, 2021).

For one data set, the system named is S. mansoni worms. The data set can be described thus: In vitro potency assay with varied FBS level. In kind it is cell-based. The note with it: Schistosoma mansoni. The source says:
(§1) These early experiments also allowed us to use the PK Tool to predict the dose to use in the mouse efficacy models. As part of the prediction we need to recognise that the measured in vitro potency will be different from that in whole blood. […] They also display high protein binding in plasma, assay media and microsomal stability assays. […] Measurement of binding of LSHTM-3520 in the assay medium gave a free fraction, Fu of 0.0014. An experiment was run using LSHTM-3520 to determine whether the potency shift on varying the plasma protein level in the in vitro assay accords with prediction.

Data set [1] is described as follows: Binding in the assay medium. The class given is in vitro ADME.
Description: as §1

The nature of data set [2]: Observation of mice for adverse clinical signs / ill effects. The class given is in vivo. To be noted: 200 mg/kg single oral dose, one mouse 400 mg/kg. On the procedure:
Prior to in vivo efficacy experiments, a single animal was given a dose of drug (using the same formulation) that was twice as large as that planned for use in the efficacy experiments and was observed periodically for adverse clinical signs for 24h by trained veterinarians. Adverse clinical signs checked include postural defect, vocalization, oculo-nasal discharge, hypersalivation, change in activity, abnormal gait, respiration and pulse, piloerection, loss of pupillary reflex, eyelid reflex, chromodacryorrhea, reaction to handling, tremor, convulsions, prostration, diarrhoea, cachexia, emaciation. […] In vivo efficacy was assessed in female CD1 mice using methods based on those previously described. Mice were infected subcutaneously with 150 cercariae. Test compounds were suspended in 7% Tween-80 / 3% Ethanol / double distilled water and drug dispersal was facilitated by vortexing and using a sonicating water bath (Formulation “Aqueous”). Alternatively, drugs were first dissolved in DMSO, then diluted with corn oil to give a 1:19 DMSO:corn oil solution/suspension of test compound (Formulation “Corn oil”). […] Worms were recovered by portal perfusion with citrate saline 8–14 days post treatment and counted. Differences between groups relative to the non-drug treated controls were assessed for statistical significance by Student’s unpaired t-test using GraphPad Prism Software. […]

The conditions of data set [3]: rat, in vivo.
Another data set can be described thus: in vivo. To be noted: rat.
The nature of data set [4]: Stability in phosphate buffer and simulated gastric fluid. The class given is physicochemical. To be noted: for degradation in simulated gastric fluid: pH 1.2, 37°C for 3 h; for degradation in phosphate buffer: pH 8.0, 37°C for 3 h.
The target in the next data set is T1, Nav1.5 (Homo sapiens, UniProt Q14524).
T1 construct: Metrion biosciences
T1 sequence (Q14524 whole entry): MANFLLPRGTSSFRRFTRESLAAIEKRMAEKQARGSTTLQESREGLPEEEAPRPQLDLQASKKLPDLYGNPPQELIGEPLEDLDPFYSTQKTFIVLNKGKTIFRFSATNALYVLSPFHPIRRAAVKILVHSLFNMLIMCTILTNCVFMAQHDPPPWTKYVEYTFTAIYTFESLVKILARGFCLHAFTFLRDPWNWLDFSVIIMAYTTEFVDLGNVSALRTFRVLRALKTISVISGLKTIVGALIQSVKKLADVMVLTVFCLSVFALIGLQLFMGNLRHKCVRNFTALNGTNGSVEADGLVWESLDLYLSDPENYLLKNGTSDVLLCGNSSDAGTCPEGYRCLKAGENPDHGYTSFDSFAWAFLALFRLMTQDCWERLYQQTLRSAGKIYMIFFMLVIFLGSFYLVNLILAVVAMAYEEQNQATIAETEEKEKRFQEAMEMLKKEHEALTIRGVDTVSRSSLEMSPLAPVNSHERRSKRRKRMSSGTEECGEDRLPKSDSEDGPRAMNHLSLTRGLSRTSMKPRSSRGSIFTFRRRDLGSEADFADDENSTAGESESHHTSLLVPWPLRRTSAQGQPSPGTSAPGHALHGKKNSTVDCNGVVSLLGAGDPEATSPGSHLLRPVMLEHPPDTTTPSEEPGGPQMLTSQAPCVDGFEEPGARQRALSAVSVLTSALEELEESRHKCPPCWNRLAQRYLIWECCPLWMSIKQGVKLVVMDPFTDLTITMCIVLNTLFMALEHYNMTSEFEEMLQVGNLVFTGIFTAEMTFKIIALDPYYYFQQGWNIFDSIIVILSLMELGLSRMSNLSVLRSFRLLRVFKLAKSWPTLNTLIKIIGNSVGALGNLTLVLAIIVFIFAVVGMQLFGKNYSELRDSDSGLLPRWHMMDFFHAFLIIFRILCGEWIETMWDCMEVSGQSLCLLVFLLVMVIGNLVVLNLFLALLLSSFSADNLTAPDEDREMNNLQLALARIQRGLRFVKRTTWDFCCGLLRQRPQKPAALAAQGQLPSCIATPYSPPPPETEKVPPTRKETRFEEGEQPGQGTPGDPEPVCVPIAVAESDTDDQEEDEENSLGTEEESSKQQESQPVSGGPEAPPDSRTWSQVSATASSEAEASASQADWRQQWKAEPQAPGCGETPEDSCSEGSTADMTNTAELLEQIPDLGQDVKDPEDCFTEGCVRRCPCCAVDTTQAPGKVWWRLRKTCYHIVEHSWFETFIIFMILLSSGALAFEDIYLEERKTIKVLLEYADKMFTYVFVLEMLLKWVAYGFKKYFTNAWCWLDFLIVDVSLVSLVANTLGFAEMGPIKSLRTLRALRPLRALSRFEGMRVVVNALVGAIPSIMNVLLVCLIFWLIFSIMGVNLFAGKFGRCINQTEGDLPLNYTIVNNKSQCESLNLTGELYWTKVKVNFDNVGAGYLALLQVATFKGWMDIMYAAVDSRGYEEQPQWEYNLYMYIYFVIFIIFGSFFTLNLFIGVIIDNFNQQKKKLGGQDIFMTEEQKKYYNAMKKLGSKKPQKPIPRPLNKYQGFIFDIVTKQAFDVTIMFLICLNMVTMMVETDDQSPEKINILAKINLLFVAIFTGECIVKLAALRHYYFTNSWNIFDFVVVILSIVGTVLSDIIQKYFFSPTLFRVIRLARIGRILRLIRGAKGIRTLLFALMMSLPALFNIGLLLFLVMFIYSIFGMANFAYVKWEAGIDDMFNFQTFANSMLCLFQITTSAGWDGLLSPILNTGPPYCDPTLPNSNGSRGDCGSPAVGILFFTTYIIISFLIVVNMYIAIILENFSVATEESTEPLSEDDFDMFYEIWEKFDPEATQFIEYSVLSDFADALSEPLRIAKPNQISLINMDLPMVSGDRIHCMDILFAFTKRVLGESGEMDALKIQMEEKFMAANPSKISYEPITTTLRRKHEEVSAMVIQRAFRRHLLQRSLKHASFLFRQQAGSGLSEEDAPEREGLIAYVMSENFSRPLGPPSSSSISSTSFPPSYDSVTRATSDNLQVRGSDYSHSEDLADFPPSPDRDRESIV
In words: Ion channel activity (Metrion), Nav1.5, QPatch. The note with it: dose-response up to 10 μM. The class given is cell-based. The procedure: (§2) Ion channel activity. Activity of compounds against ion channels was assessed by Metrion biosciences, Cambridge, CB21 6AD, UK in dose-response experiments (n = 2) up to 10 μM compound concentration with standards & equipment as listed for each ion channel (hERG–verapamil—QPatch, Nav1.5 –amitryptiline—QPatch, Kv1.5 –transDSC—QPatch, Cav1.2 –nimodipine—Flex).
Background: In patch-clamp work, channel activity is measured electrically.

The target of another data set is T2, Cav1.2 (Homo sapiens, UniProt Q13936).
T2 construct: Metrion biosciences
The data set can be described thus: Ion channel activity (Metrion), Cav1.2, Flex. In kind it is cell-based. To be noted: dose-response up to 10 μM. On the procedure: as §2

A further data set can be described thus: Stability in plasma. In kind it is in vitro ADME. To be noted: 37°C for 3 h.
In data set [5] the test system is panel of 38 in vitro toxicity targets (receptors, channels, transporters). In words: Broad selectivity panel (Cerep), radioligand receptor binding assays. The note with it: 1uM. The procedure: Selectivity was assessed at Cerep (Celle l’ Evescault, France), as described in the Cerep catalog, against a panel of in vitro radioligand receptor binding assays with 38 different receptors, channels, and transporters selected as targets to avoid for safety reasons (beta 1, beta 2, NMDA, MAO-A, 5-HT1B, CCK1 (CCKA), BZD (central), delta (DOP), A2A, CB1, CB2, D1, D2S, ETA, H1, H2, M1, M2, M3, 5-HT1A, 5-HT2A, 5-HT2B, 5-HT3, GR, AR, V1a, kappa (KOP), mu (MOP), alpha 1A, alpha 2A, Ca2+ channel, Potassium Channel, Kv channel, Na+ channel, N neuronal alpha 4 beta 2, norepinephrine transporter, dopamine transporter, 5-HT transporter). The specific ligand binding to the receptors is defined as the difference between the total binding, and the nonspecific binding determined in the presence of an excess of unlabelled ligand.

Another data set deals with T3, hERG (Homo sapiens, UniProt Q12809).
T3 construct: Metrion biosciences
T3 sequence (Q12809 whole entry): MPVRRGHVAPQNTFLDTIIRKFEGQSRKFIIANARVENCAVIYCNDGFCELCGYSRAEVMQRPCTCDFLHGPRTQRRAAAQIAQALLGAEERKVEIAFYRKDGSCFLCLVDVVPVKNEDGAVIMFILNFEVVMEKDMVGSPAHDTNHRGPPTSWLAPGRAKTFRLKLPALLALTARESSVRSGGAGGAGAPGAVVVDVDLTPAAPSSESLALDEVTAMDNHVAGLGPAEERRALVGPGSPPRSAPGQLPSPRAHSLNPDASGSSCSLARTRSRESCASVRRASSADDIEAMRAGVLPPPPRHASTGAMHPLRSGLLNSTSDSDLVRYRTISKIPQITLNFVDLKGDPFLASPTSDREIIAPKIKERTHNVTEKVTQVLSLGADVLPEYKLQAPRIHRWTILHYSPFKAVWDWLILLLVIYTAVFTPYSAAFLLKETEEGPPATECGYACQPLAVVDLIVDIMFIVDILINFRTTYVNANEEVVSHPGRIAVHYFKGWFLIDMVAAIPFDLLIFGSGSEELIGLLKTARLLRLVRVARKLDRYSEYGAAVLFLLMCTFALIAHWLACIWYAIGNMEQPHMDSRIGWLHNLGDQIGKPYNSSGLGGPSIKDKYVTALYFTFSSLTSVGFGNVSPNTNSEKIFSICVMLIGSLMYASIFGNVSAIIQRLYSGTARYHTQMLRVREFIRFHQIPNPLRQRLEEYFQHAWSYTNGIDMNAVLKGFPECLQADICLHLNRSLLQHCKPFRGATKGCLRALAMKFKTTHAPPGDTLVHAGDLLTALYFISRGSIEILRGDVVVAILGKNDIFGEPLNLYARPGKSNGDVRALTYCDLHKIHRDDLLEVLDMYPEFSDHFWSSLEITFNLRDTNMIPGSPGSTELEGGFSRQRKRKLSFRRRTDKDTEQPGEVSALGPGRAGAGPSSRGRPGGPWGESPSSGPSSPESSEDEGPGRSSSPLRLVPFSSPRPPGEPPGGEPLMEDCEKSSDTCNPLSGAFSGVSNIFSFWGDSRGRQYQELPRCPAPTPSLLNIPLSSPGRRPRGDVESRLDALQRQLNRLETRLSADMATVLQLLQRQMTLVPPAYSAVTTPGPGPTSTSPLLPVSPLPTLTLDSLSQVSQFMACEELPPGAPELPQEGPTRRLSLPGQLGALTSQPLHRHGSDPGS
In words: Ion channel activity (Metrion), hERG, QPatch. To be noted: dose-response up to 10 μM. In kind it is cell-based. On the procedure: as §2
On the technique in general: Block of hERG is tested as a sign of cardiac risk.

The target of a further data set is T4, Kv1.5 (Homo sapiens, UniProt P22460).
T4 construct: Metrion biosciences
T4 sequence (P22460 whole entry): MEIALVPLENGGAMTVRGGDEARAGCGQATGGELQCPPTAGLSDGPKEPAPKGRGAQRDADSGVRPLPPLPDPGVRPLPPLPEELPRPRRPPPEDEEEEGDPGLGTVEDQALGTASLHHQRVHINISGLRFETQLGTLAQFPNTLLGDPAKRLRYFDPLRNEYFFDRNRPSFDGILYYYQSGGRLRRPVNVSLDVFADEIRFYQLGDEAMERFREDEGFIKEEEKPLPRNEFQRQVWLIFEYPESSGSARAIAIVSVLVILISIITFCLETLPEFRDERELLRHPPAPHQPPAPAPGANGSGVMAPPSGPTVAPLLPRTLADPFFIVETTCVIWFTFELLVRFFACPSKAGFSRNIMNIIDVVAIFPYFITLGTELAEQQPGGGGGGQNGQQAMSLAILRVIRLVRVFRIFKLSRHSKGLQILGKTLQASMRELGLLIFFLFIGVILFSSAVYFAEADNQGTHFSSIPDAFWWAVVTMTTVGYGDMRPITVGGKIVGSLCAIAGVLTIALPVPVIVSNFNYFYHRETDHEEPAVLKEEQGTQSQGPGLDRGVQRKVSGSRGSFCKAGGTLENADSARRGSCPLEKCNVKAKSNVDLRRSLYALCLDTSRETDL
The data set can be described thus: Ion channel activity (Metrion), Kv1.5, QPatch. The class given is cell-based. To be noted: dose-response up to 10 μM. The procedure: as §2

Structures are written as SMILES.

By EC50 is commonly meant the midpoint of the concentration-response curve. A higher EC50 goes with a less potent agent. Consider `CC(C)c1nc2cnc(-c3ccc(F)c(C(F)(F)F)c3)cn2c1-c1c(F)cc(O)cc1F` [LSHTM-3520], for which the results for the EC50 in the data set on S. mansoni worms (3% FBS), in the data set on S. mansoni worms (10% FBS) and in the data set on S. mansoni worms (30% FBS) were 8 nM, 24.4 nM and 75 nM, respectively. The fraction unbound in data set [1] (bovine, assay medium of the in vitro potency assay, read-out: free fraction, Fu) is 0.0014. The recovery in data set [1] (bovine, in vitro potency assay medium with Foetal Bovine Serum, in vitro assay medium) amounted to 69.3%. Besides, the Assay medium %binding in data set [1] (in vitro assay medium) turned out to be 99.86%. Further, in data set [2], the “issues observed with the animals exposed” value is given as “no issues observed”.

The term AUC(0-inf) denotes total exposure, with the tail of the curve extrapolated. A high value points to high exposure. Broadly, the Vd is the apparent volume that relates the amount in the body to the concentration in plasma or blood. A higher Vd goes with extensive tissue distribution. For orientation: bioavailability means the share of a dose that reaches the circulation, judged against a reference dose that is usually intravenous. The low end stands for little systemic uptake, the high end for much systemic uptake. On to `Fc1ccc(-c2cn3c(-c4ccc5[nH]ncc5c4F)c(C(F)(F)F)nc3cn2)cc1C(F)(F)F` [LSHTM-3642, 3-(4-fluoro-1H-indazol-5-yl)-6-(4-fluoro-3-(trifluoromethyl)phenyl)-2-(trifluoromethyl)imidazo[1,2-a]pyrazine], for which, in data set [3] (iv, 1 mg/kg), the Clobs is 3.33 mL/min/kg. Moreover, the “Plasma conc @ 24 h after oral dose” value in [3] (po, 10 mg/kg, 24 h) was 357 ng/mL. In the data set “in vivo” (iv, 1 mg/kg), the AUC(0-inf) worked out at 5000 ng·h/mL and the volume of distribution (Vd) is 8.8 L/kg. The bioavailability in “in vivo” (po, 10 mg/kg) turned out to be 67%.

Turning to `Fc1ccc(-c2cn3c(-c4ccc5[nH]ncc5c4F)c(C(F)(F)F)nc3cn2)cc1C(F)(F)C(F)(F)F` [LSHTM-3645], in data set [4], the “degradation in simulated gastric fluid” value is recorded as “No degradation” and the “degradation in phosphate buffer” value is given as “No degradation”. The “inhibition of Nav1.5” value on Nav1.5 was “Neither LSHTM-3645 nor LSHTM-3686 showed any inhibition”. Moreover, the “inhibition of Cav1.2” value on Cav1.2 is listed as “Neither LSHTM-3645 nor LSHTM-3686 showed any inhibition”. The degradation in plasma entry in “Stability in plasma” is reported as “No degradation”. In [5], the “activity against panel of 38 in vitro toxicity targets” value is “no reproduceable activity”. For the same compound, the “inhibition of hERG” value at hERG was “Neither LSHTM-3645 nor LSHTM-3686 showed any inhibition”. Besides, the “inhibition of Kv1.5” value against Kv1.5 was “Neither LSHTM-3645 nor LSHTM-3686 showed any inhibition”.

On to `CC(C)c1cc(-c2cn3c(-c4ccc5[nH]ncc5c4F)c(C4CC4)nc3cn2)ccc1F` [LSHTM-3686], for which, in data set [4], the “degradation in simulated gastric fluid” value is given as “No degradation” and the “degradation in phosphate buffer” value was “No degradation”. In addition, the “inhibition of Nav1.5” value against Nav1.5 was “Neither LSHTM-3645 nor LSHTM-3686 showed any inhibition”. Further, the “inhibition of Cav1.2” value against Cav1.2 is listed as “Neither LSHTM-3645 nor LSHTM-3686 showed any inhibition”. The degradation in plasma result in the data set “Stability in plasma” was “No degradation”. In addition, the “inhibition of hERG” value against hERG is recorded as “Neither LSHTM-3645 nor LSHTM-3686 showed any inhibition”. Also, at Kv1.5, the “inhibition of Kv1.5” value is on record as “Neither LSHTM-3645 nor LSHTM-3686 showed any inhibition”.
